From US11203574B2 (BioCryst Pharmaceuticals, Inc., priority 2014, dated 2021)

Target: human plasma kallikrein (Homo sapiens (Human), UniProt P03952)
Assay: Plasma kallikrein activity assay (chromogenic substrate S2302)
Assay type: biochemical
Details: 2 nM kallikrein, 80 μM S2302, 30° C., pH 7.8; Ki by Cheng-Prusoff equation; values given as ranges; read-out: Ki

Sequence of human plasma kallikrein (P03952 whole entry, looked up): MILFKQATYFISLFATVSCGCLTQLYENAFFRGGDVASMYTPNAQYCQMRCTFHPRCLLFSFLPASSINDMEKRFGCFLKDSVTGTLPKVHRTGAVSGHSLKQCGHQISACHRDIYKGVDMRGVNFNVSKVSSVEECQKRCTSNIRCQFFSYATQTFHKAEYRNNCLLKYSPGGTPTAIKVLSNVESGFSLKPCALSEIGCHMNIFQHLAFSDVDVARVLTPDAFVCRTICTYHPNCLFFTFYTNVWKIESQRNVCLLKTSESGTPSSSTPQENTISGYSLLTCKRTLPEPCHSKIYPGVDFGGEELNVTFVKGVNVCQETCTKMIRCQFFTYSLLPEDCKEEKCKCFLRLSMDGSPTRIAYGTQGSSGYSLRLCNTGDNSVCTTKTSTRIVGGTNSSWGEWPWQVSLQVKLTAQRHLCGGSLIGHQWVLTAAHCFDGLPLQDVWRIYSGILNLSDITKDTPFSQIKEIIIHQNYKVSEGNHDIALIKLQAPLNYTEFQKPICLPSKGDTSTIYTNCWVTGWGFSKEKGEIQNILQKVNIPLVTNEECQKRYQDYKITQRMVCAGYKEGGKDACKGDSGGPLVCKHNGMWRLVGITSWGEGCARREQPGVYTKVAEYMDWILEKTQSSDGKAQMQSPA
Sequence of human plasma kallikrein (P03952 whole entry partner, looked up): as the sequence (P03952 whole entry, looked up) above

`Cc1ccc(C(NCC2CC2)c2cccc(NC(=O)c3cc(C(F)(F)F)nn3-c3cccc(CN)c3)c2)cc1` (stereo not drawn) [122g, 1-(3-(aminomethyl)phenyl)-N-(3-(((cyclopropylmethyl)amino)(p-tolyl)methyl)phenyl)-3-(trifluoromethyl)-1H-pyrazole-5-carboxamide] and `COc1ccc(C(NCC2CC2)c2cccc(NC(=O)c3cc(C(F)(F)F)nn3-c3cccc(CN)c3)c2)cc1` (stereo not drawn) [105g, 1-(3-(Aminomethyl)phenyl)-N-(3-(((cyclopropylmethyl)amino)(4-methoxyphenyl)methyl)phenyl)-3-(trifluoromethyl)-1H-pyrazole-5-carboxamide] fall in the same range of Ki: 0.1 to 50 nM for the first, 0.1 to 50 nM for the second.

`NCc1cccc(-n2nc(C(F)(F)F)cc2C(=O)Nc2cccc(C(NCC3CC3)c3ccc(O)c(Br)c3)c2)c1` (stereo not drawn) [207j, 1-(3-(Aminomethyl)phenyl)-N-(3-((3-bromo-4-hydroxyphenyl)(cyclopropylmethylamino)methyl)phenyl)-3-(trifluoromethyl)-1H-pyrazole-5-carboxamide] and `NCc1cccc(-n2nc(C(F)(F)F)cc2C(=O)Nc2cccc(C(NCC3CC3)c3cc(O)ccc3O)c2)c1` (stereo not drawn) [146g, 1-(3-(aminomethyl)phenyl)-N-(3-((cyclopropylmethylamino)(2,5-dihydroxyphenyl)methyl)phenyl)-3-(trifluoromethyl)-1H-pyrazole-5-carboxamide] fall in the same range of Ki: 0.1 to 50 nM for the first, 0.1 to 50 nM for the second.

`Cc1ccc(C)c(C(NCC2CC2)c2cccc(NC(=O)c3cc(C(F)(F)F)nn3-c3cccc(CN)c3)c2)c1` (stereo not drawn) [202f, 1-(3-(aminomethyl)phenyl)-N-(3-(((cyclopropylmethyl)amino)(2,5-dimethylphenyl)methyl)phenyl)-3-(trifluoromethyl)-1H-pyrazole-5-carboxamide] and `NCc1cccc(-n2nc(C(F)(F)F)cc2C(=O)Nc2cccc(C(NCC3CC3)c3ccccc3F)c2)c1` (stereo not drawn) [117e, 1-(3-(aminomethyl)phenyl)-N-(3-((cyclopropylmethylamino)(2-fluorophenyl)methyl)phenyl)-3-(trifluoromethyl)-1H-pyrazole-5-carboxamide] fall in the same range of Ki: 0.1 to 50 nM for the first, 0.1 to 50 nM for the second.

`CCc1cccc(C(NCC2CC2)c2cccc(NC(=O)c3cc(C(F)(F)F)nn3-c3cccc(CN)c3)c2)c1` (stereo not drawn) [116e, 1-(3-(aminomethyl)phenyl)-N-(3-((cyclopropylmethylamino)(3-ethylphenyl)methyl)phenyl)-3-(trifluoromethyl)-1H-pyrazole-5-carboxamide] and `NCc1cccc(-n2nc(C(F)(F)F)cc2C(=O)Nc2cccc(C(NCC3CC3)c3cccc(F)c3)c2)c1` (stereo not drawn) [195f, 1-(3-(aminomethyl)phenyl)-N-(3-(((cyclopropylmethyl)amino)(3-fluorophenyl)methyl)phenyl)-3-(trifluoromethyl)-1H-pyrazole-5-carboxamide] fall in the same range of Ki: 0.1 to 50 nM for the first, 0.1 to 50 nM for the second.

`NCc1cccc(-n2nc(C(F)(F)F)cc2C(=O)Nc2cccc(C(CCC3CC3)c3ccccc3)c2)c1` (stereo not drawn) [78d, 1-(3-(aminomethyl)phenyl)-N-(3-(3-cyclopropyl-1-phenylpropyl)phenyl)-3-(trifluoromethyl)-1H-pyrazole-5-carboxamide] and `CC(C)NC(c1ccccc1)c1cccc(NC(=O)c2cc(C(F)(F)F)nn2-c2cccc(CN)c2)c1` (stereo not drawn) [144d, 1-(3-(Aminomethyl)phenyl)-N-(3-((isopropylamino)(phenyl)methyl)phenyl)-3-(trifluoromethyl)-1H-pyrazole-5-carboxamide] fall in the same range of Ki: 0.1 to 50 nM for the first, 0.1 to 50 nM for the second.

`NCc1cccc(-n2nc(C(F)(F)F)cc2C(=O)Nc2cccc(C(NCC3CC3)c3cccc4ccccc34)c2)c1` (stereo not drawn) [129f, 1-(3-(aminomethyl)phenyl)-N-(3-((cyclopropylmethylamino)(naphthalen-1-yl)methyl)phenyl)-3-(trifluoromethyl)-1H-pyrazole-5-carboxamide] and `NCc1cccc(-n2nc(C(F)(F)F)cc2C(=O)Nc2cccc(C(NCC3CC3)c3ccccc3)c2F)c1` (stereo not drawn) [88b, 1-(3-(aminomethyl)phenyl)-N-(3-((cyclopropylmethylamino)(phenyl)methyl)-2-fluorophenyl)-3-(trifluoromethyl)-1H-pyrazole-5-carboxamide] fall in the same range of Ki: 0.1 to 50 nM for the first, 0.1 to 50 nM for the second.

`NCc1cccc(-n2nc(C(F)(F)F)cc2C(=O)Nc2cc(C(CCC3CC3)n3ccncc3=O)ccc2F)c1` (stereo not drawn) [249b, 1-(3-(aminomethyl)phenyl)-N-(5-(3-cyclopropyl-1-(2-oxopyrazin-1(2H)-yl)propyl)-2-fluorophenyl)-3-(trifluoromethyl)-1H-pyrazole-5-carboxamide] and `Nc1nccc2ccc(-n3nc(C(F)(F)F)cc3C(=O)Nc3cc(C(CCC4CC4)n4ccncc4=O)ccc3F)cc12` (stereo not drawn) [259d, 1-(1-aminoisoquinolin-7-yl)-N-(5-(3-cyclopropyl-1-(2-oxopyrazin-1(2H)-yl)propyl)-2-fluorophenyl)-3-(trifluoromethyl)-1H-pyrazole-5-carboxamide] fall in the same range of Ki: 0.1 to 50 nM for the first, 0.1 to 50 nM for the second.

`NCc1cccc(-n2nc(C(F)(F)F)cc2C(=O)Nc2cc(F)cc(C(OCC3CC3)c3ccccc3)c2)c1` (stereo not drawn) [80h, 1-(3-(aminomethyl)phenyl)-N-(3-((cyclopropylmethoxy)(phenyl)methyl)-5-fluorophenyl)-3-(trifluoromethyl)-1H-pyrazole-5-carboxamide] and `CC(=O)Nc1ccc(C(OCC2CC2)c2cccc(NC(=O)c3cc(C(F)(F)F)nn3-c3cccc(CN)c3)c2)cc1` (stereo not drawn) [147e, N-(3-((4-acetamidophenyl)(cyclopropylmethoxy)methyl)phenyl)-1-(3-(aminomethyl)phenyl)-3-(trifluoromethyl)-1H-pyrazole-5-carboxamide] fall in the same range of Ki: 0.1 to 50 nM for the first, 0.1 to 50 nM for the second.

Compared with `CCC(CO)NC(c1ccccc1)c1cccc(NC(=O)c2cc(C(F)(F)F)nn2-c2cccc(CN)c2)c1` (stereo not drawn) [168b, 1-(3-(Aminomethyl)phenyl)-N-(3-(((1-hydroxybutan-2-yl)amino)(phenyl)methyl)phenyl)-3-(trifluoromethyl)-1H-pyrazole-5-carboxamide], `CCCN(c1ccccc1)c1cccc(NC(=O)c2cc(C(F)(F)F)nn2-c2cccc(CN)c2)c1` [27f, 1-(3-(aminomethyl)phenyl)-N-(3-(phenyl(propyl)amino)phenyl)-3-(trifluoromethyl)-1H-pyrazole-5-carboxamide] is higher in Ki: 0.1 to 50 nM for the first, 50 to 100 nM for the second. The first binds more tightly here.

`NCc1cccc(-n2nc(C(F)(F)F)cc2C(=O)Nc2cccc(C(O)(CCC3CC3)c3ccccn3)c2)c1` (stereo not drawn) [45g, 1-(3-(aminomethyl)phenyl)-N-(3-(3-cyclopropyl-1-hydroxy-1-(pyridin-2-yl)propyl)phenyl)-3-(trifluoromethyl)-1H-pyrazole-5-carboxamide] and `NCc1cccc(-n2nc(C(F)(F)F)cc2C(=O)Nc2cccc(C(NCC3CC3)c3cccnc3)c2)c1` (stereo not drawn) [79f, 1-(3-(Aminomethyl)phenyl)-N-(3-(((cyclopropylmethyl)amino)(pyridin-3-yl)methyl)phenyl)-3-(trifluoromethyl)-1H-pyrazole-5-carboxamide] fall in the same range of Ki: 0.1 to 50 nM for the first, 0.1 to 50 nM for the second.

`NCc1cccc(-n2nc(C(F)(F)F)cc2C(=O)Nc2cccc(C(CCC3CC3)N3CCCC3)c2)c1` (stereo not drawn) [98b, 1-(3-(aminomethyl)phenyl)-N-(3-(3-cyclopropyl-1-(pyrrolidin-1-yl)propyl)phenyl)-3-(trifluoromethyl)-1H-pyrazole-5-carboxamide] and `CC(=O)Nc1ccc(C(NCC2CC2)c2cccc(NC(=O)c3cc(C(F)(F)F)nn3-c3cccc(CN)c3)c2)cc1` (stereo not drawn) [138f, N-(3-((4-acetamidophenyl)(cyclopropylmethylamino)methyl)phenyl)-1-(3-(aminomethyl)phenyl)-3-(trifluoromethyl)-1H-pyrazole-5-carboxamide] fall in the same range of Ki: 0.1 to 50 nM for the first, 0.1 to 50 nM for the second.

Compared with `NCc1cccc(-n2nc(C(F)(F)F)cc2C(=O)Nc2cccc(C(O)c3ccccc3)c2F)c1` (stereo not drawn) [35g, 1-(3-(aminomethyl)phenyl)-N-(2-fluoro-3-(hydroxy(phenyl)methyl)phenyl)-3-(trifluoromethyl)-1H-pyrazole-5-carboxamide], `NCc1cccc(-n2nc(C(F)(F)F)cc2C(=O)Nc2cc(C(NCC3CC3)c3cccnc3)ccc2Cl)c1` (stereo not drawn) [96f, 1-(3-(Aminomethyl)phenyl)-N-(2-chloro-5-((cyclopropylmethylamino)(pyridin-3-yl)methyl)phenyl)-3-(trifluoromethyl)-1H-pyrazole-5-carboxamide] is lower in Ki: 50 to 100 nM for the first, 0.1 to 50 nM for the second. The second binds more tightly here.

In the case of `Nc1nccc2ccc(-n3nc(C(F)(F)F)cc3C(=O)Nc3cc(C(N)(CCC4CC4)c4ccccc4)ccc3F)cc12` (single isomer, unassigned; (+)) [255a, (+)-N-(5-(1-amino-3-cyclopropyl-1-phenylpropyl)-2-fluorophenyl)-1-(1-aminoisoquinolin-7-yl)-3-(trifluoromethyl)-1H-pyrazole-5-carboxamide], the Ki is reported as 0.1 to 50 nM.

Same assay, conditions: Ki, 2 nM kallikrein, 80 μM S2302, 30° C., pH 7.8; Ki by Cheng-Prusoff equation; values given as ranges

`NCc1cccc(-n2nc(C(F)(F)F)cc2C(=O)Nc2cccc(C(NCC3CC3)c3cc4ccccc4c4ccccc34)c2)c1` (stereo not drawn) [125g, 1-(3-(Aminomethyl)phenyl)-N-(3-((cyclopropylmethylamino)(phenanthren-9-yl)methyl)phenyl)-3-(trifluoromethyl)-1H-pyrazole-5-carboxamide] showed a Ki of 0.1 to 50 nM.

System: hereditary angioedema (HAE)
Assay: not given
Details: bradykinin B2 receptor antagonist; cited from earlier work

For `NC(N)=NCCC[C@@H](N)C(=O)N[C@@H](CCCN=C(N)N)C(=O)N1CCC[C@H]1C(=O)N1C[C@H](O)C[C@H]1C(=O)NCC(=O)N[C@@H](Cc1cccs1)C(=O)N[C@@H](CO)C(=O)N1Cc2ccccc2C[C@@H]1C(=O)N1[C@H](C(=O)N[C@@H](CCCN=C(N)N)C(=O)O)C[C@@H]2CCCC[C@@H]21` [Icatibant], the “treatment of HAE” value is listed as “effective in treating HAE”.
